Experimental data: ChEMBL document CHEMBL1201862, “PubChem BioAssay data set” (2004)
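Growth conditions: 96-well plates. Treatment: test compound, 48 hours, 5 concentrations. Analysis: linear interpolation between bracketing concentrations; unreached endpoints set to highest concentration. Here, GI50 denotes the concentration required for 50% inhibition of growth.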 Calls of active or inactive are those of the source. Rule as the data show it: active = GI50 up to about 1.1 µM and inactive = higher.

Assays:
Assay in all cases: NCI anticancer screen, dose series, 48 h
SNB-78 = system: SNB-78
DLD-1 = system: DLD-1
HOP-62 = system: HOP-62
RPMI-8226 = system: RPMI-8226
DMS-273 = system: DMS-273
KM12 = system: KM12
SN12C = system: SN12C
HT-29 = system: HT-29
OVCAR-4 = system: OVCAR-4
RXF 393 = system: RXF 393
HOP-18 = system: HOP-18
SF-295 = system: SF-295
COLO 205 = system: COLO 205
HCT-15 = system: HCT-15
HCT-116 = system: HCT-116
SW-620 = system: SW-620
HOP-92 = system: HOP-92
SK-MEL-5 = system: SK-MEL-5
SF-539 = system: SF-539
CCRF-CEM = system: CCRF-CEM
MOLT-4 = system: MOLT-4
SNB-19 = system: SNB-19
SK-MEL-2 = system: SK-MEL-2
XF498 = system: XF498
NCI-H460 = system: NCI-H460
OVCAR-5 = system: OVCAR-5
OVCAR-8 = system: OVCAR-8
IGROV-1 = system: IGROV-1
EKVX = system: EKVX
Malme-3M = system: Malme-3M
UO-31 = system: UO-31
A549 = system: A549
K562 = system: K562
NCI-H23 = system: NCI-H23
MCF7 = system: MCF7
HCC 2998 = system: HCC 2998
NCI/ADR-RES = system: NCI/ADR-RES
OVCAR-3 = system: OVCAR-3
NCI-H226 = system: NCI-H226
SK-MEL-28 = system: SK-MEL-28
SF-268 = system: SF-268
KM-20L2 = system: KM-20L2
SK-OV-3 = system: SK-OV-3
M19-MEL = system: M19-MEL
LOX IMVI = system: LOX IMVI
SNB-75 = system: SNB-75
HL-60 = system: HL-60
NCI-H522 = system: NCI-H522
U-251 = system: U-251
A498 = system: A498
UACC-62 = system: UACC-62
UACC-257 = system: UACC-257

Question: With CCCCCCc1ccc(O)cc1O [HEXYLRESORCINOL] as the compound, how does the GI50 (SNB-78) read?
Answer: > 72.8 µM (inactive)

Question: And the GI50 (DLD-1)?
Answer: 72.6 µM (inactive)

Question: What about the GI50 (HOP-62) of the same compound?
Answer: 57.8 µM (inactive)

Question: What about the GI50 (RPMI-8226) of the same compound?
Answer: 32.1 µM (inactive)

Question: What about the GI50 (DMS-273) of the same compound?
Answer: > 72.6 µM (inactive)

Question: What about the GI50 (KM12) of the same compound?
Answer: 62.2 µM (inactive)

Question: And the GI50 (SN12C)?
Answer: 66.4 µM (inactive)

Question: And the GI50 (HT-29)?
Answer: > 100 µM (inactive)

Question: What about the GI50 (OVCAR-4) of the same compound?
Answer: 48.5 µM (inactive)

Question: And the GI50 (RXF 393)?
Answer: > 75.2 µM (inactive)

Question: What about the GI50 (HOP-18) of the same compound?
Answer: 28.2 µM (inactive)

Question: What about the GI50 (SF-295) of the same compound?
Answer: 46.8 µM (inactive)

Question: What about the GI50 (COLO 205) of the same compound?
Answer: > 100 µM (inactive)

Question: What about the GI50 (HCT-15) of the same compound?
Answer: 59.8 µM

Question: What about the GI50 (HCT-116) of the same compound?
Answer: 53.5 µM (inactive)

Question: And the GI50 (SW-620)?
Answer: > 100 µM (inactive)

Question: And the GI50 (HOP-92)?
Answer: 30.6 µM (inactive)

Question: And the GI50 (SK-MEL-5)?
Answer: 31.8 µM (inactive)

Question: What about the GI50 (SF-539) of the same compound?
Answer: > 80.7 µM (inactive)

Question: And the GI50 (CCRF-CEM)?
Answer: 32 µM (inactive)

Question: And the GI50 (MOLT-4)?
Answer: 22.9 µM (inactive)

Question: What about the GI50 (SNB-19) of the same compound?
Answer: 43.7 µM (inactive)

Question: What about the GI50 (SK-MEL-2) of the same compound?
Answer: 26.1 µM (inactive)

Question: What about the GI50 (XF498) of the same compound?
Answer: > 65.3 µM (inactive)

Question: And the GI50 (NCI-H460)?
Answer: 58.3 µM (inactive)

Question: What about the GI50 (OVCAR-5) of the same compound?
Answer: > 65.6 µM (inactive)

Question: And the GI50 (OVCAR-8)?
Answer: > 69 µM (inactive)

Question: And the GI50 (IGROV-1)?
Answer: 45.5 µM (inactive)

Question: And the GI50 (EKVX)?
Answer: > 64.7 µM (inactive)

Question: And the GI50 (Malme-3M)?
Answer: 48 µM (inactive)

Question: And the GI50 (UO-31)?
Answer: 24.4 µM (inactive)

Question: What about the GI50 (A549) of the same compound?
Answer: 40.6 µM (inactive)

Question: What about the GI50 (K562) of the same compound?
Answer: 44.8 µM (inactive)

Question: And the GI50 (NCI-H23)?
Answer: 47.3 µM (inactive)

Question: What about the GI50 (MCF7) of the same compound?
Answer: 81.1 µM (inactive)

Question: What about the GI50 (HCC 2998) of the same compound?
Answer: > 100 µM (inactive)

Question: And the GI50 (NCI/ADR-RES)?
Answer: 38.4 µM (inactive)

Question: And the GI50 (OVCAR-3)?
Answer: 36.4 µM (inactive)

Question: And the GI50 (NCI-H226)?
Answer: 57.8 µM (inactive)

Question: What about the GI50 (SK-MEL-28) of the same compound?
Answer: > 71.9 µM (inactive)

Question: And the GI50 (SF-268)?
Answer: 87.3 µM (inactive)

Question: What about the GI50 (KM-20L2) of the same compound?
Answer: > 100 µM (inactive)

Question: And the GI50 (SK-OV-3)?
Answer: > 100 µM (inactive)

Question: What about the GI50 (M19-MEL) of the same compound?
Answer: 42.8 µM (inactive)

Question: And the GI50 (LOX IMVI)?
Answer: > 100 µM (inactive)

Question: What about the GI50 (SNB-75) of the same compound?
Answer: 28.8 µM (inactive)

Question: And the GI50 (HL-60)?
Answer: 30.8 µM (inactive)

Question: What about the GI50 (NCI-H522) of the same compound?
Answer: 36.1 µM (inactive)

Question: What about the GI50 (U-251) of the same compound?
Answer: 40.4 µM (inactive)

Question: And the GI50 (A498)?
Answer: > 100 µM (inactive)

Question: What about the GI50 (UACC-62) of the same compound?
Answer: 34.4 µM (inactive)

Question: And the GI50 (UACC-257)?
Answer: 39.5 µM (inactive)
